# In patent US9441012B2, “Fluorinated epoxyketone-based compounds and uses thereof as proteasome inhibitors” (FLUORINOV PHARMA INC., priority 2012, dated 2016):
# Key:
# LP1 myeloma cells = assay: Combination assays: viability of myeloma LP1 cells (MTS, combination index); type: cell-based, human
# Description: To examine whether compounds of Formula I can be combined with other conventional and newer anti-multiple myeloma agents, such as dexamethasone and bortezomib, respectively, LP1 myeloma cells were treated for 72 hours with increasing concentrations of compounds of Formula I in combination with dexamethasone or bortezomib. After incubation, cell growth and viability was measured by the MTS assay. The combination index (CI) analysis, where a CI<1 indicates synergy between two drugs, a CI=1 indicates additivity, and a CI>1 indicates antagonism, was used to determine whether the cytotoxicity produced by the combinations with compounds of Formula I were synergistic, additive, or antagonistic.
# The effects of combining these agents with a representative of compounds of Formula I i.e. the compound of Example 1 on the viability of myeloma LP1 cells in culture were assessed. LP1 cells were treated for 72 hours with increasing concentrations of the compound of Example 1 in combination with dexamethasone or bortezomib. After incubation, cell growth and viability was measured by the MTS assay.
# The combination of the compound of Example 1 and bortezomib was synergistic with Combination Index values of 0.41, 0.46, and 0.88 at Fraction affected (Fa) levels of 0.39, 0.58, and 0.6, respectively (FIG. 2A).
# The combination of the compound of Example 1 and dexamethasone was synergistic with Combination Index values of 0.41, 0.44, and 0.5 at Fraction affected levels of 0.43, 0.5, and 0.64, respectively (FIG. 2B).
# [1] = target: purified beta proteasome subunits from Thermoplasma acidophilum; whole cell lysates from LP1 (Thermoplasma acidophilum, UniProt P28061); assay: Enzymatic activity of purified proteasomes (FIG. 1); type: biochemical, Thermoplasma acidophilum; human; conditions: compared to bortezomib
# Description: Purified beta proteasome subunits from the archaebacteria Thermoplasma acidophilum (A) or whole cell lysates from the human myeloma cell line LP1 (B).
# Increasing concentrations ([…]) of compounds of Formula (I) and bortezomib were incubated with […] purified beta subunits of proteasomes isolated from Thermoplasma acidophilum in assay buffer supplemented with 2 mM ATP. DMSO alone was used as a control. After 1 hour of incubation at 37° C., the Suc-Leu-Leu-Val-Tyr-AMC substrate was added at a final concentration of 40 μM and CT-L proteasome activity was measured as described above for tumor cell lysates.
# Purified beta proteasome subunits from the archaebacteria Thermoplasma acidophilum (A) and whole cell lysates from the human myeloma cell line LP1 (B) were used in the study.
# [2] = test system: AML2 mouse xenograft leukemia model; assay: Leukemia AML2 xenograft model; type: in vivo; conditions: 30 mg/kg oral gavage
# Description: Sublethally irradiated NOD-SCID mice bearing an established human tumor xenograft derived from RL and BALB/c mice challenged with the murine tumor cell line AML2 were treated twice weekly on days 1 and 2 (QD×2) with a dose of 30 mg/kg to 200 mg/kg of the compound of Example 1 by oral gavage. Dosing began on Day 6 post tumor challenge.
# [3] = test system: normal mononuclear hematopoietic cells (CD138−); assay: Viability of primary patient samples (Annexin V, anti-CD138, flow cytometry); type: cell-based; conditions: 24 hours
# Description: (§1) Apoptosis was measured by staining cells treated with compounds of Formula I with annexin V-fluorescein isothiocyanate and propidium iodide (both from Biovision Research Products, Mountain View, Calif.) and flow cytometry according to manufacturer's instructions and as previously described [Blood. 2005, 105(10), 4043-4050]. Experiments were performed at least in duplicate and repeated at least twice (n=4-20 data points). Viable primary myeloma cells were identified by staining with phycoerythrin-conjugated mouse monoclonal anti-CD138 antibody (20 μL/[…] cells; Beckman Coulter, Brea, Calif.). The percentage of myeloma cells that were CD138 positive and annexin V negative after compounds of Formula (I) treatment compared with untreated samples was quantified as a marker of cell viability as previously described [Blood. 2007, 109(12), 5430-5438].
# (§2) Effects of a representative of compounds of Formula I (the compound of Example 1) on the viability of primary malignant and normal hematopoietic cells isolated from patient samples was also studied. […] Viability of normal hematopoietic cells (CD138−) and myeloma cells (CD138+) were measured by flow cytometry with PE-labeled anti-CD138 and FITC-labeled Annexin V co-staining. […]
# [4] = test system: primary CD138+ myeloma cells; assay: as above; type: cell-based, human; conditions: 24 hours
# Description: as §1, §2
# [5] = test system: standard panel of 12 tumor cell lines; assay: Hollow fiber assay (HFA); type: in vivo, mouse; conditions: ip, 75 mg/kg/dose and 35.5 mg/kg/dose, QD x 4
# Description: Hollow fibre assay in vivo pharmacodynamic studies were carried out. This in vivo animal model uses semi-permeable biocompatible fibres that are filled with cancer cells, heat-sealed and implanted surgically (s.c. or i.p.) in mice or rats, which can then be treated with chemotherapeutics. Many different cell lines from different tissue origins and cellular characteristics can be encapsulated within the fibres, providing a cost-effective screening method.
# The Oncology Program Screening and Characterization Strategy group at NCI uses HFA, which provides quantitative indices of drug efficacy with minimal expenditures of time and materials. Thus, the HFA is being utilized as the initial in vivo experience for compounds of Formula I.
# A total of 3 different tumor lines are prepared for each experiment so that each mouse receives 3 intraperitoneal implants (1 of each tumor line) and 3 subcutaneous implants (1 of each tumor line). A compound is considered for xenograft testing if it produces cell kill of any cell line at either dose level evaluated, or it has a combined ip+sc score of 20 or greater, a sc score of 8 or greater. […]
# The compound of Example 1 was evaluated in an HFA assay via ip administration at two doses; a 75 mg/kg/dose and a 35.5 mg/kg/dose, QD […] 4. […]
# Sequence of purified beta proteasome subunits from Thermoplasma acidophilum; whole cell lysates from LP1 (P28061 9-211): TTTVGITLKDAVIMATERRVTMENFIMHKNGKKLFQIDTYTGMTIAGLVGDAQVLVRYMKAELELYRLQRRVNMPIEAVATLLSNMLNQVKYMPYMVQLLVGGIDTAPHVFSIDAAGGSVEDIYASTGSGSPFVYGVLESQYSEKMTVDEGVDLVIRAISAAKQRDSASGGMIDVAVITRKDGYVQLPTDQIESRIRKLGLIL
# Sequence of purified beta proteasome subunits from Thermoplasma acidophilum; whole cell lysates from LP1 (P25156 whole entry partner): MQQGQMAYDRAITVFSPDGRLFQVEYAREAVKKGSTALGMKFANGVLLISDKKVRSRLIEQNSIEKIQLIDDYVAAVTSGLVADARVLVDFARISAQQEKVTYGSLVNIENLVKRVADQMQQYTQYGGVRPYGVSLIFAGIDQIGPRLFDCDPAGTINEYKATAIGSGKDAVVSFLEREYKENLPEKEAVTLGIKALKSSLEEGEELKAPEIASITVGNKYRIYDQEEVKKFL
compound,measurement,setting,value
"Cc1ncc(C(=O)N[C@@H](COC(F)F)C(=O)N[C@@H](COC(F)F)C(=O)N[C@@H](Cc2ccccc2)C(=O)[C@@]2(C)CO2)s1 [Example 1, 2-methyl-thiazole-5-carboxylic acid ((S)-1-{(S)-1-[(S)-1-benzyl-2-((R)-2-methyloxiranyl)-2-oxo-ethylcarbamoyl]-2-difluoromethoxyethylcarbamoyl}-2-difluoromethoxyethyl)-amide]",Combination Index,"LP1 myeloma cells; combination with bortezomib, Fraction affected 0.39, LP1, 72 hours",0.41
same,Combination Index,"LP1 myeloma cells; combination with bortezomib, Fraction affected 0.58, LP1, 72 hours",0.46
same,Combination Index,"LP1 myeloma cells; combination with bortezomib, Fraction affected 0.6, LP1, 72 hours",0.88
same,Combination Index,"LP1 myeloma cells; combination with dexamethasone, Fraction affected 0.43, LP1, 72 hours",0.41
same,Combination Index,"LP1 myeloma cells; combination with dexamethasone, Fraction affected 0.5, LP1, 72 hours",0.44
same,Combination Index,"LP1 myeloma cells; combination with dexamethasone, Fraction affected 0.64, LP1, 72 hours",0.5
same,effect on the enzymatic activity of purified proteasomes,[1],disrupts the ubiquitin-proteasome system
same,gross adverse effects including reductions in body weight or alterations in behaviour,[2],no observed gross adverse effects
same,tumor growth inhibition,[2]; twice weekly days 1 and 2 (QD×2),greater than 40%
same,LD50 normal mononuclear hematopoietic cells,[3],> 2.5 µM
same,viability of primary CD138+ myeloma cells over CD138− normal hematopoietic cells,[4]; patient bone marrow or peripheral blood samples,selectively reduced the viability
same,cell death in the plasma cells of the myeloma patients,[4]; patient samples,nanomolar concentrations
same,cell killing in hollow fiber assay,[5],produced cell killing of multiple cell lines
